From PubChem BioAssay AID1963958 (Molecular Pharmacology Branch, DTP, NCI, 2024)

Tested on: MDA-MB-231 multicell spheroids, viability
Assay: Anticancer human tumor MDA-MB-231 cell line growth inhibition [PI3K];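 also: spheroids exposed to agents for seven days before reading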;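 as to viability, T/C: percent of vehicle control luminescence with DMSO treated spheroids as 100%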
Settings: for IC50: curve of first compound; for viability, T/C: stronger effect = lower value
Summary of the method: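 Complex 3D spheroids (cancer cells + endothelial HUVEC + mesenchymal stem cells); drug pairs of targeted agent x inavolisib/alpelisib/duvelisib/copanlisib; half-log series from ~Cmax, max 10 microM if Cmax unknown; endpoint viability.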

[1] = second compound 0.0316 µM, first compound 0.0316 µM
[2] = second compound 0.0316 µM, first compound 0.1 µM
[3] = second compound 0.1 µM, first compound 0.0316 µM
[4] = second compound 0.1 µM, first compound 0.1 µM
[5] = second compound 0.316 µM, first compound 0.0316 µM
[6] = second compound 0.316 µM, first compound 0.1 µM
[7] = second compound 1 µM, first compound 0.0316 µM
[8] = second compound 1 µM, first compound 0.1 µM

With `Cn1ncnc1[C@H]1c2n[nH]c(=O)c3cc(F)cc(c23)N[C@@H]1c1ccc(F)cc1` + COc1c(OCCCN2CCOCC2)ccc2c3n(c(=NC(=O)c4cnc(N)nc4)nc12)CCN3 the IC50 (second compound 0.00316 µM) was > 100 nM, the IC50 (second compound 0.01 µM) was > 100 nM and the IC50 (second compound 0.0316 µM) was 38.4 nM. The IC50 (second compound 0.1 µM) was < 0.316 nM, the IC50 (second compound 0.316 µM) was < 0.316 nM and the IC50 (second compound 1 µM) was < 0.316 nM. For the same molecule, the viability, T/C (second compound 0.00316 µM, first compound 0.000316 µM) was 94%, the viability, T/C (second compound 0.00316 µM, first compound 0.001 µM) was 89.6% and the viability, T/C (second compound 0.00316 µM, first compound 0.00316 µM) was 91.4%. For the same molecule, the viability, T/C (second compound 0.00316 µM, first compound 0.01 µM) was 78.5%, the viability, T/C (second compound 0.00316 µM, first compound 0.0316 µM) was 78.5% and the viability, T/C (second compound 0.00316 µM, first compound 0.1 µM) was 72.9%. For the same molecule, the viability, T/C (second compound 0.01 µM, first compound 0.000316 µM) was 76.4%, the viability, T/C (second compound 0.01 µM, first compound 0.001 µM) was 76.7% and the viability, T/C (second compound 0.01 µM, first compound 0.00316 µM) was 68.9%. The viability, T/C (second compound 0.01 µM, first compound 0.01 µM) was 64.8%, the viability, T/C (second compound 0.01 µM, first compound 0.0316 µM) was 67.2% and the viability, T/C (second compound 0.01 µM, first compound 0.1 µM) was 60.3%. It also gave a viability, T/C (second compound 0.0316 µM, first compound 0.000316 µM) of 57.8%, a viability, T/C (second compound 0.0316 µM, first compound 0.001 µM) of 59.2% and a viability, T/C (second compound 0.0316 µM, first compound 0.00316 µM) of 53.8%. It also gave a viability, T/C (second compound 0.0316 µM, first compound 0.01 µM) of 53.5%, a viability, T/C [1] of 51.7% and a viability, T/C [2] of 46.1%. The viability, T/C (second compound 0.1 µM, first compound 0.000316 µM) was 46.4%, the viability, T/C (second compound 0.1 µM, first compound 0.001 µM) was 46.6% and the viability, T/C (second compound 0.1 µM, first compound 0.00316 µM) was 43%. For the same molecule, the viability, T/C (second compound 0.1 µM, first compound 0.01 µM) was 43.7%, the viability, T/C [3] was 39.7% and the viability, T/C [4] was 37.5%. The viability, T/C (second compound 0.316 µM, first compound 0.000316 µM) was 31.8%, the viability, T/C (second compound 0.316 µM, first compound 0.001 µM) was 32.3% and the viability, T/C (second compound 0.316 µM, first compound 0.00316 µM) was 32.4%. It also gave a viability, T/C (second compound 0.316 µM, first compound 0.01 µM) of 29.6%, a viability, T/C [5] of 30.1% and a viability, T/C [6] of 25.7%. It also gave a viability, T/C (second compound 1 µM, first compound 0.000316 µM) of 24.4%, a viability, T/C (second compound 1 µM, first compound 0.001 µM) of 23.5% and a viability, T/C (second compound 1 µM, first compound 0.00316 µM) of 24.6%. The viability, T/C (second compound 1 µM, first compound 0.01 µM) was 23.5%, the viability, T/C [7] was 25.7% and the viability, T/C [8] was 22.4%.
With `CC(C)NCC(C(=O)N1CCN(c2ncnc3c2C(C)CC3O)CC1)c1ccc(Cl)cc1` (centres undefined) + CC(Nc1ncnc2nc[nH]c12)c1cc2cccc(Cl)c2c(=O)n1-c1ccccc1 the IC50 (second compound 0.0316 µM) was 8610 nM, the IC50 (second compound 0.1 µM) was 8770 nM and the IC50 (second compound 0.316 µM) was 6480 nM. It also gave an IC50 (second compound 1 µM) of 5570 nM, an IC50 (second compound 3.16 µM) of 1870 nM and an IC50 (second compound 10 µM) of 96.5 nM. It also gave a viability, T/C [1] of 103%, a viability, T/C [2] of 98% and a viability, T/C (second compound 0.0316 µM, first compound 0.316 µM) of 97.1%. It also gave a viability, T/C (second compound 0.0316 µM, first compound 1 µM) of 91%, a viability, T/C (second compound 0.0316 µM, first compound 3.16 µM) of 64.3% and a viability, T/C (second compound 0.0316 µM, first compound 10 µM) of 47.9%. For the same molecule, the viability, T/C [3] was 106%, the viability, T/C [4] was 88.5% and the viability, T/C (second compound 0.1 µM, first compound 0.316 µM) was 91.8%. The viability, T/C (second compound 0.1 µM, first compound 1 µM) was 82.2%, the viability, T/C (second compound 0.1 µM, first compound 3.16 µM) was 66.3% and the viability, T/C (second compound 0.1 µM, first compound 10 µM) was 46.8%. It also gave a viability, T/C [5] of 86%, a viability, T/C [6] of 102% and a viability, T/C (second compound 0.316 µM, first compound 0.316 µM) of 86.8%. It also gave a viability, T/C (second compound 0.316 µM, first compound 1 µM) of 77.9%, a viability, T/C (second compound 0.316 µM, first compound 3.16 µM) of 62.1% and a viability, T/C (second compound 0.316 µM, first compound 10 µM) of 43%. For the same molecule, the viability, T/C [7] was 92.1%, the viability, T/C [8] was 82.3% and the viability, T/C (second compound 1 µM, first compound 0.316 µM) was 76.5%. It also gave a viability, T/C (second compound 1 µM, first compound 1 µM) of 65.9%, a viability, T/C (second compound 1 µM, first compound 3.16 µM) of 55.2% and a viability, T/C (second compound 1 µM, first compound 10 µM) of 44.3%. It also gave a viability, T/C (second compound 3.16 µM, first compound 0.0316 µM) of 63.5%, a viability, T/C (second compound 3.16 µM, first compound 0.1 µM) of 62.1% and a viability, T/C (second compound 3.16 µM, first compound 0.316 µM) of 63%. The viability, T/C (second compound 3.16 µM, first compound 1 µM) was 51.6%, the viability, T/C (second compound 3.16 µM, first compound 3.16 µM) was 45.3% and the viability, T/C (second compound 3.16 µM, first compound 10 µM) was 39.1%. It also gave a viability, T/C (second compound 10 µM, first compound 0.0316 µM) of 52.5%, a viability, T/C (second compound 10 µM, first compound 0.1 µM) of 48.6% and a viability, T/C (second compound 10 µM, first compound 0.316 µM) of 49.3%. For the same molecule, the viability, T/C (second compound 10 µM, first compound 1 µM) was 40.7%, the viability, T/C (second compound 10 µM, first compound 3.16 µM) was 37.9% and the viability, T/C (second compound 10 µM, first compound 10 µM) was 31.8%.
